The term MIC denotes the lowest concentration that inhibits growth of the organism.

Drawing on patent US4861768A, “2 β-substituted thiomethylpenicillin derivatives and their preparation and use” (Taiho Pharmaceutical Company, Limited, priority 1986, dated 1989), this text covers IC50 and MIC for seven compounds.

The structures appear in SMILES notation.

In experiment [1] the target is penicillinase (β-lactamase) from Bacillus SP. Put plainly: Test for β-lactamase inhibitory activity (microiodometry, penicillin G as substrate). Format: biochemical. The following applies: read-out: 50% Inhibitory Concentration. On the procedure: The inhibitory activity of each compound against penicillinase (β-lactamase) from Bacillus SP was determined by microiodometry [Tanpakushitsu Kakusan Koso (Proteins, Nucleic Acids and Enzymes), vol. 23, No.5, pp 391-400 (1978)] using penicillin G as a substrate.

The subject of a further experiment is Echerichia coli SHV 1. Put plainly: MIC of piperacillin alone or with compound, Echerichia coli SHV 1. The settings on record: 20 h, read-out: MIC, Piperacillin alone. Format: cell-based. The method, then:
(§1) (1) The minimal inhibitory concentrations (MIC) of piperacillin in the presence of 10 μg/ml of compounds of the present invention against various bacteria were determined by the MIC assay method of Japan Society of Chemotherapy (Chemotherapy 29, No. 1, pp. 76-79, 1981). The MIC values of various compounds according to the present invention and of piperacillin, as used singly, were also determined. Each test strain was grown in Mueller Hinton Broth (Difco) and used for inoculation after dilution to a concentration of 10^6 CFU/ml. The assay media (Mueller Hinton Broth) containing piperacillin and the compound according to the present invention in a series of concentrations were inoculated with the test strain and incubated at 37° C. for 20 hours. The minimum concentration at which no more than 5 colonies were observed was determined. […] All the test strains used in the above assays were β-lactamase producers.

Experiment [2] has as its system Klebsiella pneumoniae 101 L (TEM1). The experiment can be described thus: MIC of piperacillin alone or with compound, Klebsiella pneumoniae 101 L (TEM1). Format: cell-based. The settings on record: 20 h, read-out: MIC, Piperacillin alone. The method, then: as §1
In the next experiment the test system is Morganella morganii 119. Put plainly: MIC of piperacillin alone or with compound, Morganella morganii 119. Format: cell-based. The settings on record: alone, Mueller Hinton Broth, 10^6 CFU/ml, 37° C., 20 hours. The method, then: as §1
Experiment [3] deals with Serratia marcescens 200 L (TEM + C). Put plainly: MIC of piperacillin alone or with compound, Serratia marcescens 200 L (TEM + C). Format: cell-based. The settings on record: alone, Mueller Hinton Broth, 10^6 CFU/ml, 37° C., 20 hours. The method, then:
as §1

Another experiment has as its system Acinetobacter 450 L. The experiment can be described thus: MIC of piperacillin alone or with compound, Acinetobacter 450 L. Format: cell-based. The following applies: alone, Mueller Hinton Broth, 10^6 CFU/ml, 37° C., 20 hours. The method, then: as §1
The test system of experiment [4] is Pseudomonas aeruginosa PSE 3. The experiment can be described thus: MIC of piperacillin alone or with compound, Pseudomonas aeruginosa PSE 3. Format: cell-based. The settings on record: PSE3, alone, Mueller Hinton Broth, 10^6 CFU/ml, 37° C., 20 hours. On the procedure:
as §1

The subject of experiment [5] is Staphylococcus aureus 54 K. The experiment can be described thus: MIC of piperacillin alone or with compound, Staphylococcus aureus 54 K. Format: cell-based. The following applies: alone, Mueller Hinton Broth, 10^6 CFU/ml, 37° C., 20 hours. On the procedure: as §1

Take `CC1(CSC#N)C(C(=O)O)N2C(=O)CC2S1(=O)=O` (stereo not drawn) [Compound 26, sodium 2α-methyl-2β-thiocyanatomethylpenam-3α-carboxylate 1,1-dioxide]: the IC50 in experiment [1] was 9.8 µM.
Same read-out and setting: as for `Cn1nnnc1SCC1(C)C(C(=O)O)N2C(=O)CC2S1(=O)=O` (stereo not drawn) [Compound 27, sodium 2α-methyl-2β-(1-methyl-5-tetrazolyl)thiomethylpenam-3α-carboxylate 1,1-dioxide], the figure is 0.87 µM; as for `CC1(CSc2nnnn2-c2ccccc2)C(C(=O)O)N2C(=O)CC2S1(=O)=O` (stereo not drawn) [Compound 28, sodium 2α-methyl-2β-(1-phenyl-5-tetrazolyl)thiomethylpenam-3α-carboxylate 1,1-dioxide], 1 µM.
Still for that read-out and setting: as for `CC1(CSc2nnnn2-c2ccc(Cl)cc2)C(C(=O)O)N2C(=O)CC2S1(=O)=O` (stereo not drawn) [Compound 29, sodium 2β-(1-p-chlorophenyl-5-tetrazolylthio)methyl-2α-methylpenam-3α-carboxylate 1,1-dioxide], the figure is 0.48 µM.
On to `COc1ccc(-n2nnnc2SCC2(C)C(C(=O)O)N3C(=O)CC3S2(=O)=O)cc1` (stereo not drawn) [Compound 30, sodium 2β-(1-p-methoxyphenyl-5-tetrazolylthio)methyl-2α-methylpenam-3α-carboxylate 1,1-dioxide], for which the IC50 in experiment [1] is 0.75 µM.
Same read-out and setting: then `CC1(CSc2nnnn2CCO)C(C(=O)O)N2C(=O)CC2S1(=O)=O` (stereo not drawn) [Compound 31, sodium 2β-[1-(2'-hydroxyethyl)-5-tetrazolylthio]methyl-2α-methylpenam-3α-carboxylate 1,1-dioxide], with 1.82 µM.
With `CCN1CCN(C(=O)N[C@@H](C(=O)N[C@@H]2C(=O)N3[C@@H]2SC(C)(C)[C@@H]3C(=O)O)c2ccccc2)C(=O)C1=O` [Piperacillin, piperacillin], the MIC in the experiment with Echerichia coli SHV 1 amounted to 12.5 µg/mL; in experiment [2], 200 µg/mL; in the experiment with Morganella morganii 119, 25 µg/mL; in experiment [3], 25 µg/mL; in the experiment with Acinetobacter 450 L, 200 µg/mL; in experiment [4], 50 µg/mL. The minimum inhibitory concentration (MIC) in experiment [5] was determined as 6.25 µg/mL.
